The target in one data set is A2A receptor (Homo sapiens, UniProt P29274). Briefly: Inhibition of cAMP production in HEK cells. The data set is classed as cell-based. Particulars: HEK-293 cells with A2A receptor. How it is done:
When the A2A receptor is activated, is induces the production of cAMP.
HEK-293 cells with a stable transfection of A2A receptor were bought from PerkinElmer® (# ES-011-C). […] Fresh media without the selection marker was added on the day immediately before the experiment to stop selection pressure.
Stimulation buffer b) mimics the human situation by increasing the amount of albumin present in the assay.
Compounds of the present invention were diluted 100× in either of the buffers depending on the assay performed. […] The total volume of the reaction was 20 μl (10 μl of cells, 5 μl of antagonist and 5 μl of agonist). The reaction was finalized by adding 10 μl of 4× EU-cAMP tracer working solution and 10 μl of 4× ULight-anti-cAMP working solution. The TR-FRET signal was measured after 1 hour using a Spectramax Paradigm (Molecular Devices).
A general note: Cyclic AMP is a second messenger, typically raised through Gs and lowered through Gi signalling.

A short description of another data set: in vitro. As to conditions: human, Caco-2, pH 7.4.
Where [1] appears, read: IC50 (nM) (3 nM NECA as agonist, 0.1% BSA), 3 nM NECA as agonist, 0.1% BSA.
The mark [2] stands for this setting: IC50 (nM) (5 nM NECA as agonist, 2% HSA), 5 nM NECA as agonist, 2% HSA.
Setting [3] is: IC50 (nM) (5 μM Adenosine as agonist, 2.0% HSA), 5 μM Adenosine as agonist, 2.0% HSA.

Sequence of A2A receptor (P29274 whole entry): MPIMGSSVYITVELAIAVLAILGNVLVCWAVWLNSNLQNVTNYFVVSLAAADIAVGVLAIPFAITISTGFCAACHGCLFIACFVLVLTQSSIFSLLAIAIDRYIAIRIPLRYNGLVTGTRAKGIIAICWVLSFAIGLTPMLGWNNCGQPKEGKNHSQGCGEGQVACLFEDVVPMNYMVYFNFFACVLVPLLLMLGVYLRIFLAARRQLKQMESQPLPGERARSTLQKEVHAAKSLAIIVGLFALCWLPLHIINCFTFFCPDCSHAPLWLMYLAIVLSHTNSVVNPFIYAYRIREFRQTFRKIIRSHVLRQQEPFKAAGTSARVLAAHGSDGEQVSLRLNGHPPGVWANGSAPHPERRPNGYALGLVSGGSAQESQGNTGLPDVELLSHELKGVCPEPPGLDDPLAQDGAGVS

`Cn1cnc(COc2ccc(N3CCN(CCn4c(=O)sc5c4nc(N)n4nc(-c6ccco6)nc54)CC3)c(F)c2)n1` [Compound 67, 5-amino-3-(2-(4-(2-fluoro-4-((1-methyl-1H-1,2,4-triazol-3-yl)methoxy)phenyl)piperazin-1-yl)ethyl)-8-(furan-2-yl)thiazolo[5,4-e][1,2,4]triazolo[1,5-c]pyrimidin-2(3H)-one]: the figures for the IC50 at A2A receptor (setting [1]), on A2A receptor (setting [2]) and at A2A receptor (setting [3]) were 0.6 nM, 9 nM and 378 nM, respectively. Moreover, the efflux ratio – broadly, a quotient of directional permeabilities that is used to spot active efflux – at 120 min, 2 μM in “in vitro” is 15.
On to `Nc1nc2c(sc(=O)n2CCN2CCN(c3ccc(C(=O)N4CC[S+]([O-])CC4)cc3F)CC2)c2nc(-c3ccco3)nn12` [Compound 125, 5-amino-3-(2-(4-(2-fluoro-4-(1-oxidothiomorpholine-4-carbonyl)phenyl)piperazin-1-yl)ethyl)-8-(furan-2-yl)thiazolo[5,4-e][1,2,4]triazolo[1,5-c]pyrimidin-2(3H)-one], for which the 50% inhibitory concentration (IC50) (usually the point on the concentration scale where inhibition reaches its midpoint) at A2A receptor (setting [1]) was found to be 2.6 nM; on A2A receptor (setting [3]), 3620 nM. For the same compound, in the data set “in vitro”, the efflux ratio at 120 min, 2 μM turned out to be 127.
Turning to `Nc1nc2c(sc(=O)n2CCN2CCN(c3ccc(OCC(O)C(F)(F)F)cc3F)CC2)c2nc(-c3ccco3)nn12` (stereo not shown) [Compound 87, 5-amino-3-(2-(4-(2-fluoro-4-(3,3,3-trifluoro-2-hydroxypropoxy)phenyl)piperazin-1-yl)ethyl)-8-(furan-2-yl)thiazolo[5,4-e][1,2,4]triazolo[1,5-c]pyrimidin-2(3H)-one], the IC50 amounted to 1.1 nM on A2A receptor (setting [1]) and 432 nM on A2A receptor (setting [3]). In the data set “in vitro”, the efflux ratio at 120 min, 2 μM is 7.
Consider `Nc1nc2c(sc(=O)n2CCN2CCN(c3cc(OCc4nnn[nH]4)c(F)cc3F)CC2)c2nc(-c3ccco3)nn12` [Compound 66, 3-(2-(4-(5-((1H-tetrazol-5-yl)methoxy)-2,4-difluorophenyl)piperazin-1-yl)ethyl)-5-amino-8-(furan-2-yl)thiazolo[5,4-e][1,2,4]triazolo[1,5-c]pyrimidin-2(3H)-one], for which the IC50 on A2A receptor (setting [1]) was 0.8 nM; on A2A receptor (setting [2]) it was 13 nM; on A2A receptor (setting [3]), 543 nM. In addition, in “in vitro”, the efflux ratio at 120 min, 2 μM worked out at 1010.
Consider `Nc1nc2c(sc(=O)n2CCN2CCN(c3ccc(OC4CNC4)cc3)CC2)c2nc(-c3ccco3)nn12` [Compound 108, 5-amino-3-(2-(4-(4-(azetidin-3-yloxy)phenyl)piperazin-1-yl)ethyl)-8-(furan-2-yl)thiazolo[5,4-e][1,2,4]triazolo[1,5-c]pyrimidin-2(3H)-one], for which the IC50 on A2A receptor (setting [1]) turned out to be 0.7 nM; on A2A receptor (setting [3]), 172 nM. The efflux ratio at 120 min, 2 μM in “in vitro” is 191.
As to `CN(CCOc1ccc(N2CCN(CCn3c(=O)sc4c3nc(N)n3nc(-c5ccco5)nc43)CC2)c(F)c1)CC(N)=O` [Compound 46, 2-((2-(4-(4-(2-(5-amino-8-(furan-2-yl)-2-oxothiazolo[5,4-e][1,2,4]triazolo[1,5-c]pyrimidin-3(2H)-yl)ethyl)piperazin-1-yl)-3-fluorophenoxy)ethyl)(methyl)amino)acetamide], the efflux ratio at 120 min, 2 μM in “in vitro” came out at 30.
Consider `Nc1nc2c(sc(=O)n2CCN2CCN(c3cc(O[C@H]4CNC[C@H]4F)c(F)cc3F)CC2)c2nc(-c3ccco3)nn12` [Compound 94, 5-amino-3-(2-(4-(2,4-difluoro-5-(((3S,4R)-4-fluoropyrrolidin-3-yl)oxy)phenyl)piperazin-1-yl)ethyl)-8-(furan-2-yl)thiazolo[5,4-e][1,2,4]triazolo[1,5-c]pyrimidin-2(3H)-one], for which the efflux ratio at 120 min, 2 μM in the data set “in vitro” was determined as 173.
For `Nc1nc2c(sc(=O)n2CCN2CCN(c3ccncc3F)CC2)c2nc(-c3ccco3)nn12` [Compound 3, 5-amino-3-(2-(4-(3-fluoropyridin-4-yl)piperazin-1-yl)ethyl)-8-(furan-2-yl)thiazolo[5,4-e][1,2,4]triazolo[1,5-c]pyrimidin-2(3H)-one], the efflux ratio at 120 min, 2 μM in “in vitro” amounted to 4.
Consider `C[C@H](Oc1ccc(N2CCN(CCn3c(=O)sc4c3nc(N)n3nc(-c5ccco5)nc43)CC2)c(F)c1)C(=O)O` (single isomer, unassigned) [Compound 38], for which the IC50 was 0.3 nM on A2A receptor (setting [1]), 9 nM on A2A receptor (setting [2]) and 552 nM at A2A receptor (setting [3]).
Turning to `CNS(=O)(=O)c1ccc(N2CCN(CCn3c(=O)sc4c3nc(N)n3nc(-c5ccco5)nc43)CC2)cc1` [Compound 19, 4-(4-(2-(5-amino-8-(furan-2-yl)-2-oxothiazolo[5,4-e][1,2,4]triazolo[1,5-c]pyrimidin-3(2H)-yl)ethyl)piperazin-1-yl)-N-methylbenzenesulfonamide], at A2A receptor (setting [1]), the IC50 was 2.6 nM.
On to `CCOC(=O)COc1cc(N2CCN(CCn3c(=O)sc4c3nc(N)n3nc(-c5ccco5)nc43)CC2)c(F)cc1F` [Compound 73, ethyl 2-(5-(4-(2-(5-amino-8-(furan-2-yl)-2-oxothiazolo[5,4-e][1,2,4]triazolo[1,5-c]pyrimidin-3(2H)-yl)ethyl)piperazin-1-yl)-2,4-difluorophenoxy)acetate], for which the half-maximal inhibitory concentration (IC50) at A2A receptor (setting [1]) turned out to be 3.4 nM; on A2A receptor (setting [2]), 8 nM; at A2A receptor (setting [3]) it was 304 nM.
Regarding `C[C@H](Oc1cc(N2CCN(CCn3c(=O)sc4c3nc(N)n3nc(-c5ccco5)nc43)CC2)c(F)cc1F)C(=O)O` (single isomer, unassigned) [Compound 60], the IC50 is 0.8 nM at A2A receptor (setting [1]), 4 nM at A2A receptor (setting [2]) and 240 nM on A2A receptor (setting [3]).
For the compound `Nc1nc2c(sc(=O)n2CCN2CCN(c3cc(OCC(=O)NCCN4CCOCC4)c(F)cc3F)CC2)c2nc(-c3ccco3)nn12` [Compound 97, 2-(5-(4-(2-(5-amino-8-(furan-2-yl)-2-oxothiazolo[5,4-e][1,2,4]triazolo[1,5-c]pyrimidin-3(2H)-yl)ethyl)piperazin-1-yl)-2,4-difluorophenoxy)-N-(2-morpholinoethyl)acetamide], the IC50 at A2A receptor (setting [1]) was determined as 1.1 nM; at A2A receptor (setting [3]), 30 nM.
In turn, `Nc1nc2c(sc(=O)n2CCN2CCN(c3ccc(OCC(O)CO)cc3)CC2)c2nc(-c3ccco3)nn12` (stereo not shown) [Compound 12, 5-amino-3-(2-(4-(4-(2,3-dihydroxypropoxy)phenyl)piperazin-1-yl)ethyl)-8-(furan-2-yl)thiazolo[5,4-e][1,2,4]triazolo[1,5-c]pyrimidin-2(3H)-one] gave an IC50 at A2A receptor (setting [1]) of 14.2 nM. That is a double-digit nanomolar value.
For the compound `Nc1nc2c(sc(=O)n2CCN2CCN(c3ccc(S(N)(=O)=O)cc3)CC2)c2nc(-c3ccco3)nn12` [Compound 18, 4-(4-(2-(5-amino-8-(furan-2-yl)-2-oxothiazolo[5,4-e][1,2,4]triazolo[1,5-c]pyrimidin-3(2H)-yl)ethyl)piperazin-1-yl)benzenesulfonamide], the values for the IC50 on A2A receptor (setting [1]), on A2A receptor (setting [2]) and on A2A receptor (setting [3]) were 1.7 nM, 85 nM and 2170 nM, respectively.
For the compound `Nc1nc2c(sc(=O)n2CCN2CCN(c3ccncc3)CC2)c2nc(-c3ccco3)nn12` [Compound 75, 5-amino-8-(furan-2-yl)-3-(2-(4-(pyridin-4-yl)piperazin-1-yl)ethyl)thiazolo[5,4-e][1,2,4]triazolo[1,5-c]pyrimidin-2(3H)-one], the results for the half-maximal inhibitory concentration (IC50) at A2A receptor (setting [1]) and on A2A receptor (setting [2]) were 24 nM and 100 nM, respectively.
`NC(=O)c1ccc(N2CCN(CCn3c(=O)sc4c3nc(N)n3nc(-c5ccco5)nc43)CC2)cc1` [Compound 14, 4-(4-(2-(5-amino-8-(furan-2-yl)-2-oxothiazolo[5,4-e][1,2,4]triazolo[1,5-c]pyrimidin-3(2H)-yl)ethyl)piperazin-1-yl)benzamide]: the values for the IC50 on A2A receptor (setting [1]), at A2A receptor (setting [2]) and at A2A receptor (setting [3]) were 0.7 nM, 11 nM and 567 nM, respectively.
With `Nc1nc2c(sc(=O)n2CCN2CCN(c3cc(O[C@@H]4CNC[C@@H]4F)c(F)cc3F)CC2)c2nc(-c3ccco3)nn12` [Compound 93, 5-amino-3-(2-(4-(2,4-difluoro-5-(((3R,4S)-4-fluoropyrrolidin-3-yl)oxy)phenyl)piperazin-1-yl)ethyl)-8-(furan-2-yl)thiazolo[5,4-e][1,2,4]triazolo[1,5-c]pyrimidin-2(3H)-one], the values for the half-inhibitory concentration (IC50) at A2A receptor (setting [1]) and at A2A receptor (setting [3]) were 0.4 nM and 33 nM, respectively.
On A2A receptor (setting [1]), `CNC(=O)c1ccc(N2CCN(CCn3c(=O)sc4c3nc(N)n3nc(-c5ccco5)nc43)CC2)cc1` [Compound 15, 4-(4-(2-(5-amino-8-(furan-2-yl)-2-oxothiazolo[5,4-e][1,2,4]triazolo[1,5-c]pyrimidin-3(2H)-yl)ethyl)piperazin-1-yl)-N-methylbenzamide] displayed a half-inhibitory concentration (IC50) of 2.6 nM. This counts as single-digit nanomolar.
As to `Nc1nc2c(sc(=O)n2CCN2CCN(c3ccc(F)c(OCC(=O)O)c3F)CC2)c2nc(-c3ccco3)nn12` [Compound 42, 2-(3-(4-(2-(5-amino-8-(furan-2-yl)-2-oxothiazolo[5,4-e][1,2,4]triazolo[1,5-c]pyrimidin-3(2H)-yl)ethyl)piperazin-1-yl)-2,6-difluorophenoxy)acetic acid], the values for the IC50 on A2A receptor (setting [1]), at A2A receptor (setting [2]) and on A2A receptor (setting [3]) were 0.4 nM, 19 nM and 332 nM, respectively.
For `Nc1nc2c(sc(=O)n2CCN2CCN(c3ccc(OCC(=O)NCCN4CCOCC4)cc3F)CC2)c2nc(-c3ccco3)nn12` [Compound 105, 2-(4-(4-(2-(5-amino-8-(furan-2-yl)-2-oxothiazolo[5,4-e][1,2,4]triazolo[1,5-c]pyrimidin-3(2H)-yl)ethyl)piperazin-1-yl)-3-fluorophenoxy)-N-(2-morpholinoethyl)acetamide], the figures for the concentration for half-maximal inhibition (IC50) at A2A receptor (setting [1]) and at A2A receptor (setting [3]) were 0.7 nM and 95 nM, respectively.

For the origin of these results see patent publication US10995101B2, “2-oxo-thiazole derivatives as A2A inhibitors and compounds for use in the treatment of cancers” (iTeos Therapeutics SA, priority 2017, dated 2021).
